Data from patent publication US20080220416A1, “Compositions for Inhibiting Cell Growth and Inducing Apoptosis in Cancer Cells and Methods of Use Thereof” (THE BOARD OF TRUSTEES OF THE UNIVERSITY OF ILLINOI, priority 2004, published 2008).
Where two headings read alike, the source gives them in different places.

Tests used:
[1] = test system: SK-MeI-28 melanoma cells; assay: Dosing study versus chemotherapeutic agents, killing of SK-MeI-28 melanoma cells; assay type: cell-based, human; conditions: SK-MeI-28, mutated p53
Method: (§1) An initial dosing study comparing z-Leu-Leu-Nle-CHO against three different chemotherapeutic agents (i.e., adriamycin, etoposide, and cisplatin) was performed to evaluate the relative effectiveness of z-Leu-Leu-Nle-CHO in killing melanoma cells. In agreement with a previous report by Soengas, M. S. et al., 2001, Nature 409.207-211, SK-MeI-28 cells, carrying a mutated p53, were relatively resistant to killing by adriamycin, as well as to killing by other chemotherapeutic agents. For SK-MeI-28 melanoma cells, the maximal apoptotic response for adriamycin, etoposide, cisplatin, and z-Leu-Leu-Nle-CHO was 12.0%, 2.6%, 4.0%, and 29.4%, respectively. For RJ002L melanoma cells, the maximal apoptotic response for adriamycin, etoposide, cisplatin, and z-Leu-Leu-Nle-CHO was 23.9%, 12.7%, 3.4%, and 45.7%, respectively.

[2] = test system: NOXA; assay: Western blot of pro-survival and pro-apoptotic proteins in melanoma cells; assay type: cell-based, human; conditions: several melanoma cell lines, similar time points; data not shown
Method: To assess the effect of z-Leu-Leu-Nle-CHO on pro-apoptotic proteins, RJ002L pulmonary metastases melanoma cells were grown in RPMI supplemented with 10% FBS. Highly proliferating cells (i.e., cells that had reached approximately 30% confluency) were exposed to z-Leu-Leu-Nle-CHO by replenishing the culture media with media containing z-Leu-Leu-Nle-CHO (10 μM) (experimental group) or media without z-Leu-Leu-Nle-CHO (control group) and the cells were incubated for a specified period of time prior to harvesting the cells for further analysis.
Western blot analyses following z-Leu-Leu-Nle-CHO and control treatment of RJ002L melanoma cells were performed to determine the effect of z-Leu-Leu-Nle-CHO on pro-survival and pro-apoptotic proteins. Whole cell extracts were prepared and analyzed as described by Denning, M. F. et al., 1998, J Biol Chem 273: 29995-30002, 1998. The enriched mitochondria pellet and mitochondria-free cytosol of melanoma cells were prepared with the APO ALERT cell fraction kit (Clontech Laboratories, Inc. Palo Alto, Calif.) according to the manufacturer's instructions. For Western blot analysis, equal amounts of protein extracted from each sample (20-30 μg) were loaded into pre-cast 7% NuPAGE Tris-acetate gels or 4-12% NuPAGE Bis-tris gels (Invitrogen). Proteins were separated by SDS-PAGE and transferred to polyvinylidene difluoride membranes (Bio-Rad, Hercules, Calif.) using Invitrogen's buffering system. The indicated primary antibodies were incubated for indicated period of time, washed, and visualized by incubation with horseradish peroxidase-conjugated secondary antibodies and chemiluminescent reagents (Roche Diagnostics Corporation, Indianapolis, Ind.). Antibodies used were as follows: From Santa Cruz Biotechnology: Bcl-2 (SC-7382), BCl-xL (SC-634), Mcl-1 (SC-819), survivin (SC-10811), Bax (SC-493), Bak (SC-832), Bim (SC-11425), PUMA (SC-19187), p53 (SC-126), and GADD45 (SC-796); From Cell Signaling: Bid (#2002), and cleaved caspase 9 (9501); NOXA (OP180—Oncogene Research Products), Apaf-1 (559683-BD Bioscience), Smac/Diablo (IMG-248-Imgenex), cytochrome C (part of kit—Apo Alert™ cell fraction kit—Clontech Laboratories, Inc.—Palo Alto, Calif.), PARP (Pharmingen, San Diego, Calif.) and β-actin (Sigma Chemical Co., St. Louis, Mo.). Secondary antibodies anti-goat, anti-mouse, anti-rabbit and anti-rat (IgG-HRP) were purchased from Vector Laboratories (Burlingame, Calif.), Santa Cruz Biotechnology and Amersham Biosciences.
To determine if p53 status influences induction of NOXA, NOXA induction in z-Leu-Leu-Nle-CHO-treated melanoma cell lines (10 μM) containing p53 mutations (i.e. C8161, SK-MeI-28, MUM2B) were examined using Western blot analysis as described above and compared to that of Western blot results from z-Leu-Leu-Nle-CHO-treated melanoma cell lines (10 μM) having wild-type p53 (RJ002L, SK-MeI-100). […] In contrast, C8161, which carries a R196Stop mutation in only one allele, has p53 expression similar to that observed in wild-type cell lines. […] NOXA induction occurred earlier in SK-MeI-100 cells than in the other tested cell lines (FIG. 2C). Apaf-1 levels were not increased in response to z-Leu-Leu-Nle-CHO (data not shown).

[3] = test system: RJ002L melanoma cells; assay: Dosing study versus chemotherapeutic agents, killing of RJ002L melanoma cells; assay type: cell-based, human
Method: as §1

[4] = test system: CaSki human cervical cancer cells; assay: Cell growth inhibition assay in CaSki cervical cancer cells (crystal violet); assay type: cell-based; conditions: 48 hrs, read-out: IC50 of cisplatin
Method: The cell growth inhibition assay was performed in a 96-well plate format. Inhibition was assessed by monitoring the protein content in each well using the crystal violet staining method as described by Skehan et al., 1990, J Natl Cancer Inst 82:1107-1112 and Prochaska et al., 1988, Anal Biochem 169:328-336. Briefly, cells were plated at a density of 2×10^4 cells/ml in 200 μl of DMEM supplemented with 10% FBS. The cells were transfected with siRNAs ([…] siRNA oligos/well) using Oligofectamine Transfection Reagents (InVitrogen) according to manufacturer's instructions. Twenty-four hours post-transfection, the media was decanted, 190 μl of fresh media was added to each well, and 10 μl of cisplatin (4 mM) dissolved in 10% DMSO was added to the wells as a series 2-fold dilutions (final concentration of cisplatin in the wells ranged from 0.5-200 μM). The cells were incubated with cisplatin for 48 hrs, the media was decanted, and the cells were submerged with 200 μl of 0.2% crystal violet in 2% ethanol for 10 min. The plates were rinsed for 2 min with tap water. The bound dye was solublized by incubation at 37° C. for 1 h with 200 μl of 0.5% sodium dedecyl sulfate in 50% ethanol. The plates were then scanned with an ELISA reader at 562 nm. The percentage cell growth inhibition mediated by cisplatin was calculated as: % inhibition=[1-(OD of cisplatin-treated cells/OD DMSO-treated control cells)]×100/100.
CaSki human cervical cancer cells treated for 48 hrs with z-Leu-Leu-Nle-CHO alone were tested for cell growth inhibition. The cell growth inhibition assay was performed in a 96-well plate format. Inhibition was assessed by monitoring the protein content in each well using the crystal violet staining method Skehan, P. et al., 1990, J Natl Cancer Inst 82:1107-1112. Briefly, cells were plated at a density of 2×10^4 cells/ml in 200 μl of DMEM supplemented with 10% FBS. After pre-incubation period of 24 h, the media was decanted, 190 μl of fresh media was added to each well, and 10 μl (150 μM) of z-Leu-Leu-Nle-CHO dissolved in 10% DMSO was added to the wells as a series 2-fold dilutions (final concentration of cisplatin in the wells ranged from 0.05-7.5 μM). The cells were incubated with z-Leu-Leu-Nle-CHO for 48 hrs, the media was decanted, and the cells were submerged with 200 μl of 0.2% crystal violet in 2% ethanol for 10 min. The plates were rinsed for 2 min with tap water. The bound dye was solublized by incubation at 37° C. for 1 h with 200 μl of 0.5% sodium dedecyl sulfate in 50% ethanol. The plates were then scanned with an ELISA reader at 562 nm. The percentage cell growth inhibition mediated by test agents was calculated as: % inhibition=[1-(OD of z-Leu-Leu-Nle-CHO-treated cells/OD DMSO-treated control cells)]×100/100.
To determine whether z-Leu-Leu-Nle-CHO treatment potentiates the effect of cisplatin on human […] cancer cells, the CaSki cells were treated for 48 h with 0.1-0.8 μM z-Leu-Leu-Nle-CHO and various concentrations of cisplatin (2-fold dilutions of a cisplatin solution to produce final concentrations of 1.6-200 μM cisplatin). Following the z-Leu-Leu-Nle-CHO and cisplatin treatment, the cells were tested for growth inhibition as described above.
Isobologram analysis was performed by measuring the IC50 values of cisplatin in the presence of various concentrations of z-Leu-Leu-Nle-CHO. These IC50 values were plotted with SigmaPlot, and a straight line was traced between the IC50 values of cells treated with either cisplatin or z-Leu-Leu-Nle-CHO alone.

Row | Compound | maximal apoptotic response [1] | NOXA induction by DNA damaging agents [2] | maximal apoptotic response [3] | IC50 ([4]; in combination with Notch-1 siRNA) | IC50 ([4]; without Notch-1 siRNA)
1 | COc1cccc2c1C(=O)c1c(O)c3c(c(O)c1C2=O)C[C@@](O)(C(=O)CO)C[C@@H]3O[C@H]1C[C@H](N)[C@H](O)[C@H](C)O1 [adriamycin] | 12.0% | did not induce NOXA | 23.9% | – | –
2 | COc1cc([C@@H]2c3cc4c(cc3[C@@H](O[C@@H]3O[C@@H]5CO[C@@H](C)O[C@H]5[C@H](O)[C@H]3O)[C@H]3COC(=O)[C@H]23)OCO4)cc(OC)c1O [etoposide] | 2.6% | did not induce NOXA | 12.7% | – | –
3 | N.N.[Cl][Pt][Cl] [cisplatin] | 4.0% | did not induce NOXA | 3.4% | 0.46 µM | 27.3 µM
